SMILES: Nc1cc(Cl)nnc1Cl
- solubility (mole fraction) (in 1,4-dioxane, 289.15 K): 0.00294
- solubility (mole fraction) (in 1,4-dioxane, 293.65 K): 0.00365
- solubility (mole fraction) (in 1,4-dioxane, 298.15 K): 0.00427
- solubility (mole fraction) (in 1,4-dioxane, 303.15 K): 0.00556
- solubility (mole fraction) (in 1,4-dioxane, 308.15 K): 0.0066
- solubility (mole fraction) (in 1,4-dioxane, 313.15 K): 0.00811
- solubility (mole fraction) (in 1,4-dioxane, 318.15 K): 0.00982
- solubility (mole fraction) (in 1,4-dioxane, 323.15 K): 0.0121
- solubility (mole fraction) (in THF, 290.05 K): 0.0443
- solubility (mole fraction) (in THF, 295.15 K): 0.0484
- solubility (mole fraction) (in THF, 299.15 K): 0.0517
- solubility (mole fraction) (in THF, 303.15 K): 0.0556
- solubility (mole fraction) (in THF, 305.15 K): 0.057
- solubility (mole fraction) (in THF, 308.15 K): 0.0604
- solubility (mole fraction) (in THF, 313.65 K): 0.0648
- solubility (mole fraction) (in THF, 318.15 K): 0.0688
- solubility (mole fraction) (in THF, 323.15 K): 0.0752
- solubility (mole fraction) (in acetone, 295.65 K): 0.0244
- solubility (mole fraction) (in acetone, 298.15 K): 0.0258
- solubility (mole fraction) (in acetone, 300.65 K): 0.0276
- solubility (mole fraction) (in acetone, 303.15 K): 0.0293
- solubility (mole fraction) (in acetone, 305.65 K): 0.0311
- solubility (mole fraction) (in acetone, 308.15 K): 0.0327
- solubility (mole fraction) (in acetone, 310.65 K): 0.0342
- solubility (mole fraction) (in acetone, 313.15 K): 0.036
- solubility (mole fraction) (in acetone, 315.65 K): 0.0377
- solubility (mole fraction) (in acetone, 318.15 K): 0.0393
- solubility (mole fraction) (in acetone, 320.65 K): 0.041
- solubility (mole fraction) (in acetone, 323.15 K): 0.0427
- solubility (mole fraction) (in dichloromethane, 295.15 K): 7.41e-05
- solubility (mole fraction) (in dichloromethane, 297.15 K): 0.000111
- solubility (mole fraction) (in dichloromethane, 299.15 K): 0.000174
- solubility (mole fraction) (in dichloromethane, 301.15 K): 0.000262
- solubility (mole fraction) (in dichloromethane, 303.15 K): 0.000387
- solubility (mole fraction) (in dichloromethane, 305.15 K): 0.000543
- solubility (mole fraction) (in dichloromethane, 307.15 K): 0.000811
- solubility (mole fraction) (in dichloromethane, 309.15 K): 0.00117
- solubility (mole fraction) (in ethyl acetate, 295.65 K): 0.00111
- solubility (mole fraction) (in ethyl acetate, 298.15 K): 0.00134
- solubility (mole fraction) (in ethyl acetate, 300.65 K): 0.00159
- solubility (mole fraction) (in ethyl acetate, 303.15 K): 0.00192
- solubility (mole fraction) (in ethyl acetate, 305.65 K): 0.00235
- solubility (mole fraction) (in ethyl acetate, 308.15 K): 0.00303
- solubility (mole fraction) (in ethyl acetate, 310.65 K): 0.00371
- solubility (mole fraction) (in ethyl acetate, 313.15 K): 0.0049
- solubility (mole fraction) (in ethyl acetate, 315.65 K): 0.00577
- solubility (mole fraction) (in methanol, 295.65 K): 0.0142
- solubility (mole fraction) (in methanol, 298.15 K): 0.0153
- solubility (mole fraction) (in methanol, 300.65 K): 0.0161
- solubility (mole fraction) (in methanol, 303.15 K): 0.0169
- solubility (mole fraction) (in methanol, 305.65 K): 0.0178
- solubility (mole fraction) (in methanol, 308.15 K): 0.0189
- solubility (mole fraction) (in methanol, 310.65 K): 0.0201
- solubility (mole fraction) (in methanol, 313.15 K): 0.0214
- solubility (mole fraction) (in methanol, 315.65 K): 0.0229
